Literature values, collected in patent US12539302B2, “Methods and compositions for the treatment of hair loss” (Aneira Pharma, Inc., priority 2019, dated 2026).
Where two headings read alike, the source gives them in different places.

Legend:
hair growth [1] = conditions: McCarey et al. 2004
human FP receptors [2] = molecular target: T1, human FP receptors (Homo sapiens, UniProt P43088); conditions: FP receptor agonist
human FP receptors [3] = molecular target: T1, human FP receptors
hair growth [4] = tested on: hair growth
[5] = tested on: dihydrotestosterone (DHT) production; conditions: oral; including prostate gland and scalp
[6] = tested on: elevated intraocular pressure model of glaucoma; conditions: Gagliuso et al. 2004
[7] = tested on: elevated intraocular pressure; conditions: patients non-responsive to latanoprost, Gandolfi 2003
[8] = propylene glycol, methanol, ethanol and 2-propanol

T1 sequence (P43088 whole entry): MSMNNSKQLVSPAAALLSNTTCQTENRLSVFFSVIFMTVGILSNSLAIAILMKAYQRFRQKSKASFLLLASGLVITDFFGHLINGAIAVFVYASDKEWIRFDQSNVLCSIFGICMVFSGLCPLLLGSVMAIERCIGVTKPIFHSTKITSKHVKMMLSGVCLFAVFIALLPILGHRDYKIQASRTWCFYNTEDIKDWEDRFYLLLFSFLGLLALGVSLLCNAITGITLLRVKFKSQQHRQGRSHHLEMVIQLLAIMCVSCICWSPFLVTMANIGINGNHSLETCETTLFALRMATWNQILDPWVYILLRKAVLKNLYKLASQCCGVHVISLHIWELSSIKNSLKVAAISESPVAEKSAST

CCCCCCCC(=O)CC[C@@H]1[C@@H](C/C=C\CCCC(=O)OC(C)C)[C@@H](O)C[C@H]1O [Uenoprostone isopropyl ester, Unoprostone isopropyl ester]
hair growth (hair growth [1]): cause no hair growth

O=C(O)CCC/C=C\C[C@@H]1[C@@H](CC[C@@H](O)CCc2ccccc2)[C@H](O)C[C@@H]1O [Latanoprost free acid, Latanoprost acid]
potency relative to PGF2α (human FP receptors [2]): twice the potency | potency as FP receptor ligand relative to latanoprost (human FP receptors [3]): two-hundred times more potent

Nc1cc(N2CCCCC2)nc(N)[n+]1OS(=O)(=O)[O-] [minoxidil sulphate]
potency as hair growth agent compared to minoxidil (hair growth [4]): much more potent

CC(C)(C)NC(=O)[C@H]1CC[C@H]2[C@@H]3CC[C@H]4NC(=O)C=C[C@]4(C)[C@H]3CC[C@]12C [finasteride, (1S,3aS,3bS,5aR,9aR,9bS,11aS)-N-tert-butyl-9a,11a-dimethyl-7-oxo-1,2,3,3a,3b,4,5,5a,6,9b,10,11-dodecahydroindeno[5,4-f]quinoline-1-carboxamide]
decrease of DHT production [5]: about 70%

CCNC(=O)CCC/C=C\C[C@@H]1[C@@H](/C=C/[C@@H](O)CCc2ccccc2)[C@H](O)C[C@@H]1O [bimatoprost, Bimatoprost]
effect on elevated intraocular pressure in combination [6]: additive to that of latanoprost | response in reducing elevated intraocular pressure [7]: responsive

CC(C)OC(=O)CCC/C=C\C[C@@H]1[C@@H](CC[C@@H](O)CCc2ccccc2)[C@H](O)C[C@@H]1O [latanoprost, Latanoprost]
solubility, highest concentration that can be used [8]: ≥ 5% | time stable (acidic or basic aqueous solutions): no more than 48 hours | time stable (neutral aqueous solutions, room temperature): stable for up to one month

CCCCCCCC(=O)CC[C@@H]1[C@@H](C/C=C\CCCC(=O)O)[C@@H](O)C[C@H]1O [uenoprostone free acid]
hair growth (hair growth [1]): cause no hair growth
